Source: PubChem BioAssay (NCI)
Where “and” joins values, the source holds several entries; their conditions need not be identical. Equal values may be shown once.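 All cell lines were grown in 96-well plates and treated with compound for 48 hours. At the GI50, growth is halved. Definition used: TGI = concentration required for complete inhibition of growth.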

system: COLO 205 colon; test: inhibition of tumour cell growth, NCI panel, 48 h

SMILES | GI50 | TGI
N.N.N.N.O=C([O-])CCl.O=C([O-])CCl.[Co+3].[O-][Cl+3]([O-])([O-])[O-] | > 100 µM | > 100 µM
COC(=O)C1=C(OC(=O)/C(=C/c2ccc(Cl)cc2)c2ccc(Cl)cc2)C(C(=O)OC)[C@@]2(O)[C@@H](C(=O)OC)[C@H](C)C[C@@H]1[C@@H]2C(=O)OC (stereo partly drawn) | – | > 100 µM
CC(C)CCC1CC2C(=O)N(c3ccccc3)C(=O)C2c2[nH]c3ccccc3c21 (stereo not drawn) | – | 7.08 µM
O=C(CCN(C(=O)O)S(=O)(=O)c1ccc(NC(=O)c2ccccc2)cc1)Nc1ccccc1 | – | > 80.2 µM
N#CN/C(N)=N/CO | – | > 57.8 µM

system: LXFL 529 NSCLC; test: inhibition of tumour cell growth, NCI panel, 48 h

SMILES | GI50 | TGI
N.N.N.N.O=C([O-])CCl.O=C([O-])CCl.[Co+3].[O-][Cl+3]([O-])([O-])[O-] | > 100 µM | > 100 µM
CC(C)CCC1CC2C(=O)N(c3ccccc3)C(=O)C2c2[nH]c3ccccc3c21 (stereo not drawn) | – | 20.2 µM
CCCCCCCCCCCCCC(=O)OCC(C[As](=O)(O)O)OC(=O)CCCCCCCCCCCCC (stereo not drawn) | – | > 100 µM
O=C(CCN(C(=O)O)S(=O)(=O)c1ccc(NC(=O)c2ccccc2)cc1)Nc1ccccc1 | – | > 100 µM
N#CN/C(N)=N/CO | – | > 100 µM

system: HL-60(TB) leukemia; test: inhibition of tumour cell growth, NCI panel, 48 h

SMILES | GI50 | TGI
N.N.N.N.O=C([O-])CCl.O=C([O-])CCl.[Co+3].[O-][Cl+3]([O-])([O-])[O-] | > 100 µM | > 100 µM
COC(=O)C1=C(OC(=O)/C(=C/c2ccc(Cl)cc2)c2ccc(Cl)cc2)C(C(=O)OC)[C@@]2(O)[C@@H](C(=O)OC)[C@H](C)C[C@@H]1[C@@H]2C(=O)OC (stereo partly drawn) | – | > 100 µM
CC(C)CCC1CC2C(=O)N(c3ccccc3)C(=O)C2c2[nH]c3ccccc3c21 (stereo not drawn) | – | 5.73 µM
CC(C)SC1CC2C(CC1(C)O)C2(C)C (stereo not drawn) | 53.4 µM and 9.68 µM | > 100 µM
O=C(CCN(C(=O)O)S(=O)(=O)c1ccc(NC(=O)c2ccccc2)cc1)Nc1ccccc1 | – | > 75.2 µM
N#CN/C(N)=N/CO | – | > 100 µM

system: SNB-78 CNS; test: inhibition of tumour cell growth, NCI panel, 48 h

SMILES | GI50 | TGI
N.N.N.N.O=C([O-])CCl.O=C([O-])CCl.[Co+3].[O-][Cl+3]([O-])([O-])[O-] | > 100 µM | > 100 µM
CC(C)CCC1CC2C(=O)N(c3ccccc3)C(=O)C2c2[nH]c3ccccc3c21 (stereo not drawn) | – | 25.6 µM
CCCCCCCCCCCCCC(=O)OCC(C[As](=O)(O)O)OC(=O)CCCCCCCCCCCCC (stereo not drawn) | – | > 100 µM
O=C(CCN(C(=O)O)S(=O)(=O)c1ccc(NC(=O)c2ccccc2)cc1)Nc1ccccc1 | – | > 100 µM
N#CN/C(N)=N/CO | – | > 100 µM

system: CAKI-1 renal; test: inhibition of tumour cell growth, NCI panel, 48 h

SMILES | TGI
COC(=O)C1=C(OC(=O)/C(=C/c2ccc(Cl)cc2)c2ccc(Cl)cc2)C(C(=O)OC)[C@@]2(O)[C@@H](C(=O)OC)[C@H](C)C[C@@H]1[C@@H]2C(=O)OC (stereo partly drawn) | > 100 µM
CCCCCCCCCCCCCC(=O)OCC(C[As](=O)(O)O)OC(=O)CCCCCCCCCCCCC (stereo not drawn) | > 100 µM
O=C(CCN(C(=O)O)S(=O)(=O)c1ccc(NC(=O)c2ccccc2)cc1)Nc1ccccc1 | > 100 µM
N#CN/C(N)=N/CO | > 100 µM

system: OVCAR-4 ovarian; test: inhibition of tumour cell growth, NCI panel, 48 h

SMILES | GI50 | TGI
N.N.N.N.O=C([O-])CCl.O=C([O-])CCl.[Co+3].[O-][Cl+3]([O-])([O-])[O-] | > 100 µM | > 100 µM
COC(=O)C1=C(OC(=O)/C(=C/c2ccc(Cl)cc2)c2ccc(Cl)cc2)C(C(=O)OC)[C@@]2(O)[C@@H](C(=O)OC)[C@H](C)C[C@@H]1[C@@H]2C(=O)OC (stereo partly drawn) | – | > 100 µM
CC(C)CCC1CC2C(=O)N(c3ccccc3)C(=O)C2c2[nH]c3ccccc3c21 (stereo not drawn) | – | 20.7 µM
CCCCCCCCCCCCCC(=O)OCC(C[As](=O)(O)O)OC(=O)CCCCCCCCCCCCC (stereo not drawn) | – | > 100 µM
O=C(CCN(C(=O)O)S(=O)(=O)c1ccc(NC(=O)c2ccccc2)cc1)Nc1ccccc1 | – | > 100 µM
N#CN/C(N)=N/CO | – | > 100 µM

system: MCF7 breast; test: inhibition of tumour cell growth, NCI panel, 48 h

SMILES | TGI
COC(=O)C1=C(OC(=O)/C(=C/c2ccc(Cl)cc2)c2ccc(Cl)cc2)C(C(=O)OC)[C@@]2(O)[C@@H](C(=O)OC)[C@H](C)C[C@@H]1[C@@H]2C(=O)OC (stereo partly drawn) | > 100 µM

system: LOX IMVI melanoma; test: inhibition of tumour cell growth, NCI panel, 48 h

SMILES | GI50 | TGI
N.N.N.N.O=C([O-])CCl.O=C([O-])CCl.[Co+3].[O-][Cl+3]([O-])([O-])[O-] | > 100 µM | > 100 µM
COC(=O)C1=C(OC(=O)/C(=C/c2ccc(Cl)cc2)c2ccc(Cl)cc2)C(C(=O)OC)[C@@]2(O)[C@@H](C(=O)OC)[C@H](C)C[C@@H]1[C@@H]2C(=O)OC (stereo partly drawn) | – | > 100 µM
CC(C)CCC1CC2C(=O)N(c3ccccc3)C(=O)C2c2[nH]c3ccccc3c21 (stereo not drawn) | – | 14.6 µM
O=C(CCN(C(=O)O)S(=O)(=O)c1ccc(NC(=O)c2ccccc2)cc1)Nc1ccccc1 | – | > 71.4 µM
N#CN/C(N)=N/CO | – | > 57.7 µM

system: OVCAR-3 ovarian; test: inhibition of tumour cell growth, NCI panel, 48 h

SMILES | GI50 | TGI
N.N.N.N.O=C([O-])CCl.O=C([O-])CCl.[Co+3].[O-][Cl+3]([O-])([O-])[O-] | > 100 µM | > 100 µM
COC(=O)C1=C(OC(=O)/C(=C/c2ccc(Cl)cc2)c2ccc(Cl)cc2)C(C(=O)OC)[C@@]2(O)[C@@H](C(=O)OC)[C@H](C)C[C@@H]1[C@@H]2C(=O)OC (stereo partly drawn) | – | > 100 µM
CC(C)CCC1CC2C(=O)N(c3ccccc3)C(=O)C2c2[nH]c3ccccc3c21 (stereo not drawn) | – | 7.63 µM
